The assay concerns the target human F508del-CFTR (Homo sapiens, UniProt P13569, DEL508-508). The experiment in a line: F508del-CFTR cell surface expression (corrector activity), DiscoveRx ß-galactosidase complementation chemiluminescence assay in recombinant U2OS cell line.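 As to all read-outs here: U2OS cells co-expressing ProLink-tagged F508del-CFTR and a membrane-anchored enzyme acceptor, where more surface CFTR restores β-galactosidase activity measured by chemiluminescence.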 Particulars: for EC50: EC50, F508del-CFTR cell surface expression; for Emax: U2OS.
Setting [1] is: U2OS cells, 16h compound incubation, geomean values.
The mark [2] stands for this setting: in relation to Emax of corrector lumacaftor (=100%), arithmetic mean values.
Setting [3] is: U2OS cells, 16h compound incubation, geomean of several measurements.
Setting [4] is: in relation to the Emax of the corrector lumacaftor (=100%), U2OS cells, 16h compound incubation, arithmetic mean.

This note sets out measurements from patent US20240208992A1, “MACROCYCLES AS CFTR MODULATORS” (Idorsia Pharmaceuticals Ltd, priority 2021, published 2024).

The structures appear in SMILES notation.

A word on the EC50: it is the concentration at which the effect is half-maximal. One may read the Emax as the maximal effect, on the per cent scale that the assay sets.

Sequence of human F508del-CFTR (P13569 with tags, fused parts or gaps DEL508-508): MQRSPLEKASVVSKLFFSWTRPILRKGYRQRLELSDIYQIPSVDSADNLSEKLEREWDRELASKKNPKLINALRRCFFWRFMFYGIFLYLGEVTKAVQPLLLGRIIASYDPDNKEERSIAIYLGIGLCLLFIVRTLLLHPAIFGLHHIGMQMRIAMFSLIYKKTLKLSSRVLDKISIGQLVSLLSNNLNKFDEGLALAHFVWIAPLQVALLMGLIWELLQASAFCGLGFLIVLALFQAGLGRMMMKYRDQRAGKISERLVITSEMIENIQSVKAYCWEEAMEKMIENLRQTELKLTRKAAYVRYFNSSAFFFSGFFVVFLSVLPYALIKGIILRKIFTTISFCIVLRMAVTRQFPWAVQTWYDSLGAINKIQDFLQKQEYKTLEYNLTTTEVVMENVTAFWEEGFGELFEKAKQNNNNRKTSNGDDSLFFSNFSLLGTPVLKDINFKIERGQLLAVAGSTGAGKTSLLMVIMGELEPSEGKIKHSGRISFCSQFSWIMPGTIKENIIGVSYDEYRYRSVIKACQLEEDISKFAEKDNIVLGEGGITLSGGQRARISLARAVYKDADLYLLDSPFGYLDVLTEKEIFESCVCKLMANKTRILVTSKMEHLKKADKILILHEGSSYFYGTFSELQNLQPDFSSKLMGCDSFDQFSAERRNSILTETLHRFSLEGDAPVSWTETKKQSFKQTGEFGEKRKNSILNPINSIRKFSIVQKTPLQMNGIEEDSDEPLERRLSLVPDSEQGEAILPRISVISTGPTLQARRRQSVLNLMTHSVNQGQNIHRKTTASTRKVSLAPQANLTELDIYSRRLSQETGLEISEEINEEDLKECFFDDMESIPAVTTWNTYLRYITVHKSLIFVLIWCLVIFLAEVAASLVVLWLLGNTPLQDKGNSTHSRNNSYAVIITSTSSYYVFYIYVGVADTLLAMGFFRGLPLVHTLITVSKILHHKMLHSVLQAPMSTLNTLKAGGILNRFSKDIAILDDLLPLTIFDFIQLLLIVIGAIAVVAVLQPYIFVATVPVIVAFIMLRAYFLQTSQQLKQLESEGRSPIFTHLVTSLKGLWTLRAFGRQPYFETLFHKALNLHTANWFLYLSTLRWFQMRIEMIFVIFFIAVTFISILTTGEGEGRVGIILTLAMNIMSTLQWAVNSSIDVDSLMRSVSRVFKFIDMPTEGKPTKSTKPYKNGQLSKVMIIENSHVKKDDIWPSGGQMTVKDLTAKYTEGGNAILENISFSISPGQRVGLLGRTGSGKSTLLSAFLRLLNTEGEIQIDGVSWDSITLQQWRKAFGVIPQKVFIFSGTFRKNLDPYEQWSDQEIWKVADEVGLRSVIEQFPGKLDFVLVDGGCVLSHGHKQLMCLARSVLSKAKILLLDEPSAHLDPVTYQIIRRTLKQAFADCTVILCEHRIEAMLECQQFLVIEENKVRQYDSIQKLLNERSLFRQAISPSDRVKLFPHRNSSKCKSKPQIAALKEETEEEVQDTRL

For `COc1cc(CCNC(=O)[C@@H]2CC(=O)N(C)[C@@H](CC(C)C)C(=O)N3CCCC[C@@H]3C(=O)N[C@H](Cc3ccccc3)COc3ccc4cnc(C)cc4c3C(=O)N2)on1` [Example 796, (9S,13S,19aR,22R)-22-benzyl-13-isobutyl-N-(2-(3-methoxyisoxazol-5-yl)ethyl)-5,12-dimethyl-7,11,14,20-tetraoxo-7,8,9,10,11,12,13,14,17,18,19,19a,20,21,22,23-hexadecahydro-16H-pyrido[2′,1′:6,7][1]oxa[4,7,10,14]tetraazacycloheptadecino[16,17-f]isoquinoline-9-carboxamide], the EC50 under setting [1] was 156 nM. Besides, the Emax under setting [2] came out at 321%.
As for `CC(C)C[C@H]1C(=O)N(C)[C@H](C)C(=O)N[C@H](Cc2ccccc2)COc2ccc3ncc(F)cc3c2C(=O)N[C@H](C(=O)NCCc2cc(C3CC3)no2)CC(=O)N1C` [Example 797, (3S,7S,10R,13R)-13-benzyl-N-(2-(3-cyclopropylisoxazol-5-yl)ethyl)-20-fluoro-7-isobutyl-6,9,10-trimethyl-1,5,8,11-tetraoxo-1,2,3,4,5,6,7,8,9,10,11,12,13,14-tetradecahydro-[1]oxa[4,7,10,14]tetraazacycloheptadecino[16,17-f]quinoline-3-carboxamide], the EC50 under setting [1] stood at 399 nM. Also, the Emax under setting [2] worked out at 308%.
On to `CC(C)C[C@H]1C(=O)N(C)[C@H](C)C(=O)N[C@H](Cc2ccccc2)COc2ccc3ncc(F)cc3c2C(=O)N[C@H](C(=O)NCCc2cc(C3CC3)on2)CC(=O)N1C` [Example 798, (3S,7S,10R,13R)-13-benzyl-N-(2-(5-cyclopropylisoxazol-3-yl)ethyl)-20-fluoro-7-isobutyl-6,9,10-trimethyl-1,5,8,11-tetraoxo-1,2,3,4,5,6,7,8,9,10,11,12,13,14-tetradecahydro-[1]oxa[4,7,10,14]tetraazacycloheptadecino[16,17-f]quinoline-3-carboxamide], for which the EC50 under setting [3] is 197 nM. Moreover, the Emax under setting [4] was 324%.
As to `CC(C)C[C@H]1C(=O)N(C)[C@H](C)C(=O)N[C@H](Cc2ccccc2)COc2ccc3ncc(F)cc3c2C(=O)N[C@H](C(=O)NCCc2noc(C3CC3)n2)CC(=O)N1C` [Example 799, (3S,7S,10R,13R)-13-benzyl-N-(2-(5-cyclopropyl-1,2,4-oxadiazol-3-yl)ethyl)-20-fluoro-7-isobutyl-6,9,10-trimethyl-1,5,8,11-tetraoxo-1,2,3,4,5,6,7,8,9,10,11,12,13,14-tetradecahydro-[1]oxa[4,7,10,14]tetraazacycloheptadecino[16,17-f]quinoline-3-carboxamide], the EC50 under setting [3] was 258 nM. The Emax under setting [4] amounted to 335%.
For `CC(C)C[C@H]1C(=O)N(C)[C@H](C)C(=O)N[C@H](Cc2ccccc2)COc2ccc3ncc(F)cc3c2C(=O)N[C@H](C(=O)NCCc2nc(C3CC3)no2)CC(=O)N1C` [Example 800, (3S,7S,10R,13R)-13-benzyl-N-(2-(3-cyclopropyl-1,2,4-oxadiazol-5-yl)ethyl)-20-fluoro-7-isobutyl-6,9,10-trimethyl-1,5,8,11-tetraoxo-1,2,3,4,5,6,7,8,9,10,11,12,13,14-tetradecahydro-[1]oxa[4,7,10,14]tetraazacycloheptadecino[16,17-f]quinoline-3-carboxamide] the same measures were 266 nM and 352%.
For the molecule `CC(C)C[C@H]1C(=O)N(C)[C@H](CC(F)F)C(=O)N[C@H](Cc2ccccc2)COc2ccc3ncc(F)cc3c2C(=O)N[C@H](C(=O)NCCc2noc(C3CC3)n2)CC(=O)N1C` [Example 801, (3S,7S,10R,13R)-13-benzyl-N-(2-(5-cyclopropyl-1,2,4-oxadiazol-3-yl)ethyl)-10-(2,2-difluoroethyl)-20-fluoro-7-isobutyl-6,9-dimethyl-1,5,8,11-tetraoxo-1,2,3,4,5,6,7,8,9,10,11,12,13,14-tetradecahydro-[1]oxa[4,7,10,14]tetraazacycloheptadecino[16,17-f]quinoline-3-carboxamide], the EC50 under setting [3] was 149 nM. The Emax under setting [4] is 330%.
On to `CC(C)C[C@H]1C(=O)N(C)[C@@H](CC(F)F)C(=O)N[C@H](Cc2ccccc2)COc2ccc3ncc(F)cc3c2C(=O)N[C@H](C(=O)NCCc2noc(C3CC3)n2)CC(=O)N1C` [Example 802, (3S,7S,10S,13R)-13-benzyl-N-(2-(5-cyclopropyl-1,2,4-oxadiazol-3-yl)ethyl)-10-(2,2-difluoroethyl)-20-fluoro-7-isobutyl-6,9-dimethyl-1,5,8,11-tetraoxo-1,2,3,4,5,6,7,8,9,10,11,12,13,14-tetradecahydro-[1]oxa[4,7,10,14]tetraazacycloheptadecino[16,17-f]quinoline-3-carboxamide], for which the EC50 under setting [3] amounted to 723 nM. Under setting [4], the Emax is 200%.
For `CC[C@@H]1C(=O)N[C@H](Cc2ccccc2)COc2ccc3ncc(F)cc3c2C(=O)N[C@H](C(=O)NCCc2noc(C3CC3)n2)CC(=O)N(C)[C@@H](CC(C)C)C(=O)N1C` [Example 803, (3S,7S,10R,13R)-13-benzyl-N-(2-(5-cyclopropyl-1,2,4-oxadiazol-3-yl)ethyl)-10-ethyl-20-fluoro-7-isobutyl-6,9-dimethyl-1,5,8,11-tetraoxo-1,2,3,4,5,6,7,8,9,10,11,12,13,14-tetradecahydro-[1]oxa[4,7,10,14]tetraazacycloheptadecino[16,17-f]quinoline-3-carboxamide] the same measures were 248 nM and 355%.
With `CC(C)C[C@H]1C(=O)N(C)[C@H](Cc2nc(-c3ccc(F)cn3)no2)C(=O)N[C@H](Cc2ccccc2)COc2ccc3ncc(F)cc3c2C(=O)N[C@H](C(=O)NCCn2nnc(C3CC3)n2)CC(=O)N1C` [Example 804, (3S,7S,10R,13R)-13-benzyl-N-(2-(5-cyclopropyl-2H-tetrazol-2-yl)ethyl)-20-fluoro-10-((3-(5-fluoropyridin-2-yl)-1,2,4-oxadiazol-5-yl)methyl)-7-isobutyl-6,9-dimethyl-1,5,8,11-tetraoxo-1,2,3,4,5,6,7,8,9,10,11,12,13,14-tetradecahydro-[1]oxa[4,7,10,14]tetraazacycloheptadecino[16,17-f]quinoline-3-carboxamide], under setting [3], the EC50 was determined as 115 nM. For the same molecule, the Emax under setting [4] stood at 360%.
As for `CC(C)C[C@H]1C(=O)N2CCCC[C@@H]2C(=O)N[C@H](Cc2ccccc2)COc2ccc3ncc(F)cc3c2C(=O)N[C@H](C(=O)NCCc2cnn(C3CC3)n2)CC(=O)N1C` [Example 805, (9S,13S,19aR,22R)-22-benzyl-N-(2-(2-cyclopropyl-2H-1,2,3-triazol-4-yl)ethyl)-5-fluoro-13-isobutyl-12-methyl-7,11,14,20-tetraoxo-7,8,9,10,11,12,13,14,17,18,19,19a,20,21,22,23-hexadecahydro-16H-pyrido[2′,1′:6,7][1]oxa[4,7,10,14]tetraazacycloheptadecino[16,17-f]quinoline-9-carboxamide], under setting [3], the EC50 is 191 nM. Under setting [4], the Emax was 276%.
For `COc1nc(C)cc2c1C(=O)N[C@H](C(=O)NCCn1nnc(C3CC3)n1)CC(=O)N(C)[C@@H](CC(C)C)C(=O)N(C)[C@H](CC(F)(F)F)C(=O)N[C@H](Cc1ccccc1)CO2` [Example 806, (3R,6R,9S,13S)-3-benzyl-N-(2-(5-cyclopropyl-2H-tetrazol-2-yl)ethyl)-9-isobutyl-16-methoxy-7,10,18-trimethyl-5,8,11,15-tetraoxo-6-(2,2,2-trifluoroethyl)-2,3,4,5,6,7,8,9,10,11,12,13,14,15-tetradecahydropyrido[3,4-p][1]oxa[4,7,10,14]tetraazacycloheptadecine-13-carboxamide] the same measures were 233 nM and 394%.
For the molecule `Cc1cc(CCNC(=O)[C@@H]2CC(=O)N(C)[C@@H](CC(C)C)C(=O)N(C)[C@H](Cc3nc(-c4ccc(F)cn4)no3)C(=O)N[C@H](Cc3ccccc3)COc3ccc4ncc(F)cc4c3C(=O)N2)on1` [Example 807, (3S,7S,10R,13R)-13-benzyl-20-fluoro-10-((3-(5-fluoropyridin-2-yl)-1,2,4-oxadiazol-5-yl)methyl)-7-isobutyl-6,9-dimethyl-N-(2-(3-methylisoxazol-5-yl)ethyl)-1,5,8,11-tetraoxo-1,2,3,4,5,6,7,8,9,10,11,12,13,14-tetradecahydro-[1]oxa[4,7,10,14]tetraazacycloheptadecino[16,17-f]quinoline-3-carboxamide], under setting [3], the EC50 is 206 nM. Also, under setting [4], the Emax was determined as 358%.
The matching figures for `CC(C)C[C@H]1C(=O)N(C)[C@H](Cc2nc(-c3ccc(F)cn3)no2)C(=O)N[C@H](Cc2ccccc2)COc2ccc3ncc(F)cc3c2C(=O)N[C@H](C(=O)NCCc2nc(C3CC3)no2)CC(=O)N1C` [Example 808, (3S,7S,10R,13R)-13-benzyl-N-(2-(3-cyclopropyl-1,2,4-oxadiazol-5-yl)ethyl)-20-fluoro-10-((3-(5-fluoropyridin-2-yl)-1,2,4-oxadiazol-5-yl)methyl)-7-isobutyl-6,9-dimethyl-1,5,8,11-tetraoxo-1,2,3,4,5,6,7,8,9,10,11,12,13,14-tetradecahydro-[1]oxa[4,7,10,14]tetraazacycloheptadecino[16,17-f]quinoline-3-carboxamide]: 116 nM and 399%.
The matching figures for `COc1cc(CCNC(=O)[C@@H]2CC(=O)N(C)[C@@H](CC(C)C)C(=O)N(C)[C@H](Cc3nc(C(F)(F)F)no3)C(=O)N[C@H](Cc3ccccc3)COc3cnc4ccc(F)cc4c3C(=O)N2)on1` [Example 809, (3S,7S,10R,13R)-13-benzyl-20-fluoro-7-isobutyl-N-(2-(3-methoxyisoxazol-5-yl)ethyl)-6,9-dimethyl-1,5,8,11-tetraoxo-10-((3-(trifluoromethyl)-1,2,4-oxadiazol-5-yl)methyl)-1,2,3,4,5,6,7,8,9,10,11,12,13,14-tetradecahydro-[1]oxa[4,7,10,14]tetraazacycloheptadecino[17,16-c]quinoline-3-carboxamide]: 10 nM and 391%.
